# Measured values as given in patent US10703755B2, “Substituted purine derivative” (SUMITOMO DAINIPPON PHARMA CO., LTD., priority 2016, dated 2020).
# pIC50: −log10 of the molar value.
# Molecular target: human TLR7 (Homo sapiens (Human), UniProt Q9NYK1)
# Experiment: Test for evaluating the inhibition of the activation of human TLR7 (SEAP reporter, TLR7/NF-κB/SEAPorter HEK293 cell)
# Type: cell-based
# Settings: R-848 200 nmol/L; for inhibitory effect against TLR7 in the test for evaluating inhibition of the activation of TLR7: SEAP activity, result in words; for pIC50: SEAP reporter
# How it was run: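 HEK293 cells stably expressing full-length human TLR7 and an NF-κB-driven SEAP reporter. They were grown in DMEM with 10% FBS and blasticidin, and seeded at 5×10^4 cells/well overnight at 37° C, 5% CO2. Inhibition of TLR7 activation was read as SEAP output.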
# Chain of human TLR7 (Q9NYK1 27-1049): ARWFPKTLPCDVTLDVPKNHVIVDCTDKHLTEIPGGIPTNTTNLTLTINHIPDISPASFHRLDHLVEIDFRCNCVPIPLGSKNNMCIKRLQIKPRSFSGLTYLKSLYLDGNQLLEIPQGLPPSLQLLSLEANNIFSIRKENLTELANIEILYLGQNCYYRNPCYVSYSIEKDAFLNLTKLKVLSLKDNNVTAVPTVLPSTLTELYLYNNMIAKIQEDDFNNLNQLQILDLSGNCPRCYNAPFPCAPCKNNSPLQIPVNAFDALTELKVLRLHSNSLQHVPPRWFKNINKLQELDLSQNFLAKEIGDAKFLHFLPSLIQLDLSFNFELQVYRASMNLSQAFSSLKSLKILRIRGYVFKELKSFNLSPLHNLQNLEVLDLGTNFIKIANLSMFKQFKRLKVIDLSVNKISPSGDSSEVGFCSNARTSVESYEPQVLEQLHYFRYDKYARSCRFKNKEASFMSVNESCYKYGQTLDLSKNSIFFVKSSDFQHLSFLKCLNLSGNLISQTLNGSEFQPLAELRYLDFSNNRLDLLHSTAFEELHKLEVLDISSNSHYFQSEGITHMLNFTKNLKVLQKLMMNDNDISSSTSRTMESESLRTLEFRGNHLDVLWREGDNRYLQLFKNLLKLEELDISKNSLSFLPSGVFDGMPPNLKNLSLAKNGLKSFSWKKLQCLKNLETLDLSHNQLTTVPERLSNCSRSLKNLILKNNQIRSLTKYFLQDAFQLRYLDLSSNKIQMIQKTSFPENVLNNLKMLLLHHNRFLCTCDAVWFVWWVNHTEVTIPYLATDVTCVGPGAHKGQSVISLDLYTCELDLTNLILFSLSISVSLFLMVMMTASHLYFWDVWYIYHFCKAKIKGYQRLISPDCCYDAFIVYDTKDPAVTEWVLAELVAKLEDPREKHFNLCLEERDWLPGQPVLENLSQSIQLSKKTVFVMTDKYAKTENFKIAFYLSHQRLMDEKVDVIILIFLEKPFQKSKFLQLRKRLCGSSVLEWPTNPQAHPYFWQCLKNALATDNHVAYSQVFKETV
SMILES,inhibitory effect against TLR7 in the test for evaluating inhibition of the activation of TLR7,pIC50
CCNc1nc(N)c2nc(-c3cncc(F)c3)n(Cc3ccc(CN(C)C)cc3)c2n1 [Example 117],,5.15
CCOc1nc(C)c2nc(-c3cncc(F)c3)n(Cc3cnn(CC4CCNC4)c3)c2n1 (stereo not drawn) [Example 270],,6.57
COc1nc(C)c2nc(-c3cncc(F)c3)n(Cc3ccc(OCC4CN(C(=O)OC(C)(C)C)C4)cc3F)c2n1 [Example 419],,6.15
"CCOc1nc(N)c2nc(-c3cncc(F)c3)n(Cc3ccc(CN4C[C@@H]5C[C@H]4CN5C(C)=O)cc3)c2n1 [Example 126, 1-[(1S,4S)-5-(4-{[6-Amino-2-ethoxy-8-(5-fluoropyridin-3-yl)-9H-purin-9-yl]methyl}benzyl)-2,5-diazabicyclo[2.2.1]hept-2-yl]ethanone]",,6.82
CCOc1nc(N)c2nc(-c3cncc(F)c3)n(Cc3ccc(OCCCN(C)C)nc3)c2n1 [Example 42],,6.26
COc1nc(C)c2nc(-c3cncc(F)c3)n(Cc3cnn(CCN(C)C)c3)c2n1 [Example 250],,6.70
CCOc1nc(C)c2nc(-c3cncc(F)c3)n(Cc3ccc(C4=CN5CCC4CC5)cc3OCC)c2n1 [Example 356],,6.33
"COc1nc(C)c2nc(-c3cncc(F)c3)n(Cc3cccc(C4CN5CCC4CC5)c3)c2n1 (stereo not drawn) [Example 386, 9-[3-(1-azabicyclo[2.2.2]oct-3-yl)benzyl]-8-(5-fluoropyridin-3-yl)-2-methoxy-6-methyl-9H-purine]",potent inhibitory effect against TLR7,7.89
CN(C)Cc1ccc(Cn2c(-c3cncc(F)c3)nc3c(N)nc(OCC(F)F)nc32)cc1 [Example 159],,6.03
"COCC(C)Oc1nc(N)c2nc(-c3cncc(F)c3)n(Cc3ccc(CN(C)C)cc3)c2n1 (stereo not drawn) [Example 158, 9-{4-[(Dimethylamino)methyl]benzyl}-8-(5-fluoropyridin-3-yl)-2-[(1-methoxypropan-2-yl)oxy]-9H-purine-6-amine]",,4.86
CCOc1nc(C)c2nc(-c3cncc(F)c3)n(Cc3ccc(Br)cc3C#N)c2n1 [Example 339],,6.80
COc1nc(C)c2nc(-c3cnc(C)nc3)n(Cc3ccc(OC4CN5CCC4CC5)cc3F)c2n1 (stereo not drawn) [Example 329],,6.92
CCOc1nc(C)c2nc(-c3cncc(F)c3)n(Cc3cnn(CCN(C)C)c3)c2n1 [Example 244],,6.35
CCOc1nc(C)c2nc(-c3cncc(F)c3)n(Cc3cnn(CCN4CCCC4)c3)c2n1 [Example 246],,6.52
"Cc1nc(N)c2nc(-c3cncc(F)c3)n(Cc3ccc(CN(C)C)cc3)c2n1 [Example 156, 9-{4-[(Dimethylamino)methyl]benzyl}-8-(5-fluoropyridin-3-yl)-2-methyl-9H-purine-6-amine]",,5.30
CCCCN(C)c1nc(N)c2nc(-c3cncc(F)c3)n(Cc3ccc(CN(C)C)cc3)c2n1 [Example 155],,5.09
"CCOc1nc(N)c2nc(-c3cncc(F)c3)n(Cc3ccc([C@@H]4CN5CCC4CC5)cc3)c2n1 [Example 175, 9-{4-[(3R)-1-Azabicyclo[2.2.2]oct-3-yl]benzyl}-2-ethoxy-8-(5-fluoropyridin-3-yl)-9H-purine-6-amine]",,7.03
CCOc1nc(C)c2nc(-c3cncc(F)c3)n(Cc3ncc(C4CN5CCC4CC5)cc3F)c2n1 (stereo not drawn) [Example 379],,6.30
COc1nc(C)c2nc(-c3ccc4ncccc4c3)n(Cc3ccc(OC4CN5CCC4CC5)cc3F)c2n1 (stereo not drawn) [Example 440],,7.08
"COc1nc(C)c2nc(-c3cncc(F)c3)n(Cc3ccc(C4CN5CCC4CC5)cc3F)c2n1 (stereo not drawn) [Example 392, 9-[4-(1-azabicyclo[2.2.2]oct-3-yl)-2-fluorobenzyl]-8-(5-fluoropyridin-3-yl)-2-methoxy-6-methyl-9H-purine]",potent inhibitory effect against TLR7,
COc1nc(C)c2nc(-c3cncc(F)c3)n(Cc3ccc(CO)cc3F)c2n1 [Example 258],,6.77
CCOc1nc(C)c2nc(-c3cncc(F)c3)n(Cc3cnn(CC4CNCCO4)c3)c2n1 (stereo not drawn) [Example 424],,7.00
CCOc1nc(C)c2nc(-c3cncc(F)c3)n(Cc3cnc(CC4CCNCC4)cc3OC)c2n1 [Example 430],,6.26
"CCOc1nc(C)c2nc(-c3cncc(F)c3)n(Cc3ccc(C4=CN5CCC4CC5)cn3)c2n1 [Example 352, 9-{[5-(1-Azabicyclo[2.2.2]oct-2-en-3-yl)pyridin-2-yl]methyl}-2-ethoxy-8-(5-fluoropyridin-3-yl)-6-methyl-9H-purine]",,6.30
CCOc1nc(N)c2nc(-c3cncc(F)c3)n(Cc3ccc(CN4CCC4)cc3)c2n1 [Example 100],potent inhibitory effect against TLR7,7.02
"COc1nc(C)c2nc(-c3cncc(C#N)c3)n(Cc3ccc(OC4CC5CCC(C4)N5C)cc3F)c2n1 (stereo not drawn) [Example 295, 5-[9-(2-fluoro-4-{[(3-endo)-8-methyl-8-azabicyclo[3.2.1]oct-3-yl]oxy}benzyl)-2-methoxy-6-methyl-9H-purin-8-yl]pyridine-3-carbonitrile]",potent inhibitory effect against TLR7,7.89
COc1nc(C)c2nc(-c3cncc(F)c3)n(Cc3ccc(C4=CN5CCC4CC5)cn3)c2n1 [Example 353],,6.30
CCOc1nc(N)c2nc(-c3cncc(OC)c3)n(Cc3ccc(CN(C)C)cc3)c2n1 [Example 36],,5.54
"COc1nc(C)c2nc(-c3cncc(F)c3)n(Cc3ccc(O[C@@H]4CN5CCC4CC5)nc3)c2n1 [Example 69, 9-({6-[(3S)-1-azabicyclo[2.2.2]oct-3-yloxy]pyridin-3-yl}methyl)-8-(5-fluoropyridin-3-yl)-2-methoxy-6-methyl-9H-purine]",potent inhibitory effect against TLR7,6.89
CCOc1nc(C)c2nc(-c3cncc(F)c3)n(Cc3ccc(C4=CN5CCC4CC5)nc3C#N)c2n1 [Example 361],,6.24

# Further molecules by rising pIC50, results first:
inhibitory effect against TLR7 in the test for evaluating inhibition of the activation of TLR7,pIC50,SMILES
potent inhibitory effect against TLR7,7.07,CCOc1nc(N)c2nc(-c3cncc(F)c3)n(Cc3ccc(C4CCN(C5COC5)CC4)cc3)c2n1 [Example 135]
potent inhibitory effect against TLR7,7.14,CCOc1nc(C)c2nc(-c3cncc(F)c3)n(Cc3cnn(CC4CCN(C)C4)c3)c2n1 (stereo not drawn) [Example 278]
potent inhibitory effect against TLR7,7.21,COc1nc(C)c2nc(-c3cncc(F)c3)n(Cc3ccc(CC4CCNCC4)cc3F)c2n1 [Example 432]
potent inhibitory effect against TLR7,7.21,COc1nc(C)c2nc(-c3cncc(C#N)c3)n(Cc3ccc(C4CCN(C)CC4)cc3F)c2n1 [Example 288]
potent inhibitory effect against TLR7,7.28,"CCOc1nc(N)c2nc(-c3cncc(F)c3)n(Cc3ccc(C4CCN(C)CC4)cc3)c2n1 [Example 127, 2-Ethoxy-8-(5-fluoropyridin-3-yl)-9-[4-(1-methylpiperidin-4-yl)benzyl]-9H-purine-6-amine]"
potent inhibitory effect against TLR7,7.30,CCOc1nc(C)c2nc(-c3cncc(F)c3)n(Cc3cnn(C4CCN(C)CC4)c3)c2n1 [Example 166]
potent inhibitory effect against TLR7,7.30,"COc1nc(C)c2nc(-c3cncc(F)c3)n(Cc3ccc(OC4CN(C)C4)cc3F)c2n1 [Example 416, 9-{2-fluoro-4-[(1-methylazetidin-3-yl)oxy]benzyl}-8-(5-fluoropyridin-3-yl)-2-methoxy-6-methyl-9H-purine]"
potent inhibitory effect against TLR7,7.52,"CCOc1nc(N)c2nc(-c3cncc(F)c3)n(Cc3ccc(OCCN4CCCC4)cc3)c2n1 [Example 47, 2-Ethoxy-8-(5-fluoropyridin-3-yl)-9-{4-[2-(pyrrolidin-1-yl)ethoxy]benzyl}-9H-purine-6-amine]"
potent inhibitory effect against TLR7,7.55,COc1nc(N)c2nc(-c3cncc(F)c3)n(Cc3ccc(CN4C[C@@H]5C[C@H]4CN5C)cc3)c2n1 [Example 161]
potent inhibitory effect against TLR7,7.57,"COc1nc(C)c2nc(-c3cncc(C#N)c3)n(Cc3ccc(CN4C[C@@H]5C[C@H]4CN5C)cc3F)c2n1 [Example 308, 5-[9-(2-fluoro-4-{[(1S,4S)-5-methyl-2,5-diazabicyclo[2.2.1]hept-2-yl]methyl}benzyl)-2-methoxy-6-methyl-9H-purin-8-yl]pyridine-3-carbonitrile]"
potent inhibitory effect against TLR7,7.64,CCOc1nc(C)c2nc(-c3cncc(F)c3)n(Cc3cnn(CC4CCCN(C)C4)c3)c2n1 (stereo not drawn) [Example 277]
potent inhibitory effect against TLR7,7.70,"CCN1C[C@@H]2C[C@H]1CN2Cc1ccc(Cn2c(-c3cncc(C#N)c3)nc3c(C)nc(OC)nc32)c(F)c1 [Example 309, 5-[9-(4-{[(1S,4S)-5-ethyl-2,5-diazabicyclo[2.2.1]hept-2-yl]methyl}-2-fluorobenzyl)-2-methoxy-6-methyl-9H-purin-8-yl]pyridine-3-carbonitrile]"
potent inhibitory effect against TLR7,8.00,"CCOc1nc(C)c2nc(-c3cncc(F)c3)n(Cc3ccc(CN4C[C@@H]5C[C@H]4CN5C)cc3)c2n1 [Example 109, 2-ethoxy-8-(5-fluoropyridin-3-yl)-6-methyl-9-(4-{[(1S,4S)-5-methyl-2,5-diazabicyclo[2.2.1]hept-2-yl]methyl}benzyl)-9H-purine]"
